These results are taken from the supplement of paper PMC8967900.

What all share (assay): selective drug sensitivity score (sDSS, relative to normal bone marrow) (sDSS (score)); higher = more potent and effective on the cell line relative to normal bone marrow cells
Holding throughout (conditions): 72 h

Assay [1] relates to NALL-1.
Assay [2] relates to MOLT-14.
For assay [3], the system named is PEER.
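Further: ALL cell lines in 384-well plates, five doses spanning 10,000-fold, each plate scaled between vehicle and 100 µmol/L benzalkonium chloride controls, sDSS an adapted area-under-curve metric.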

For `CN1CCN(C2CCC(n3cc(-c4ccc(Oc5ccccc5)cc4)c4c(N)ncnc43)CC2)CC1` (stereo not given) (top concentration 10000 nM), the “selective drug sensitivity score” value in assay [1] was found to be 5.52; in assay [2], 3.42; in assay [3], 7.02.
As to `CC[C@H](CC#N)OC(=O)N[C@@H](C)c1cccc(NC(=O)Nc2ccc(-c3cnco3)c(OC)c2)c1` [AVN944] (top concentration 10000 nM), the “selective drug sensitivity score” value in assay [1] stood at 2.64; in assay [2], 15.9; in assay [3] it was 2.94.
On the same counts, the results for `COc1ccc(-c2ccc3c(N4CCOC[C@@H]4C)nc(N4CCOC[C@@H]4C)nc3n2)cc1CO` [AZD8055] (top concentration 10000 nM) are -3.22, 1.18 and 6.08.
As for `COc1cccc2c1C(=O)c1c(O)c3c(c(O)c1C2=O)C[C@@](O)(C(=O)CO)C[C@@H]3O[C@H]1C[C@H](N)[C@@H](O)[C@H](C)O1` [Epirubicin] (top concentration 1000 nM), the “selective drug sensitivity score” value in assay [1] was -5.28; in assay [2], 11.6; in assay [3] it was -2.98.
On the same counts, the results for `CO[C@H]1C[C@@H]2CC[C@@H](C)[C@@](O)(O2)C(=O)C(=O)N2CCCC[C@H]2C(=O)O[C@H]([C@H](C)C[C@@H]2CC[C@@H](OCCO)[C@H](OC)C2)CC(=O)[C@H](C)/C=C(\C)[C@@H](O)[C@@H](OC)C(=O)[C@H](C)C[C@H](C)/C=C/C=C/C=C/1C` [Everolimus] (top concentration 100 nM) are -5.3, -2.2 and 3.2.
On the same counts, the results for `CON(C)C(=O)N1N=C(c2cc(F)ccc2F)S[C@@]1(CCCN)c1ccccc1` [Filanesib] (top concentration 1000 nM) are 10.3, 22.9 and 19.2.
On the same counts, the results for `CN(Cc1cnc2nc(N)nc(N)c2n1)c1ccc(C(=O)N[C@@H](CCC(=O)O)C(=O)O)cc1` [Methotrexate] (top concentration 5000 nM) are 12.7, 10.8 and 14.6.
`CC[C@@]1(O)C(=O)OCc2c1cc1n(c2=O)Cc2cc3c(CN(C)C)c(O)ccc3nc2-1` [Topotecan] (top concentration 10000 nM): the “selective drug sensitivity score” value in assay [1] was determined as 20.4; in assay [2] it was 25.9; in assay [3], 10.1.
On the same counts, the results for `O=c1[nH]c(=O)n([C@H]2C[C@H](O)[C@@H](CO)O2)cc1C(F)(F)F` [Trifluridine] (top concentration 10000 nM) are 9.76, 15.4 and 7.66.
Consider `Cc1sc2c(c1C)C(c1ccc(Cl)cc1)=N[C@@H](CC(=O)NCCCCNC(=O)COc1cccc3c1C(=O)N(C1CCC(=O)NC1=O)C3=O)c1nnc(C)n1-2` (stereo not given in full) [dBET1] (top concentration 10000 nM), for which the “selective drug sensitivity score” value is -11.8 in assay [1], -1.48 in assay [2] and -4.48 in assay [3].
